Data as given in patent publication US5583147A, “Amides for the treatment of atherosclerosis” (The Dupont Merck Pharmaceutical Company, priority 1994, dated 1996).
pIC50: −log10 of the molar value.

Biological target: T1, Acyl-CoA: Cholesterol Acyltransferase (ACAT) (Rattus norvegicus, UniProt Q7TQM4)
T1 construct: centrifuged at 105,000×g for 1 hour to pellet the microsomes; from tissue; host or cells: liver microsomes of male Sprague Dawley rats
T1 sequence (Q7TQM4 1-524): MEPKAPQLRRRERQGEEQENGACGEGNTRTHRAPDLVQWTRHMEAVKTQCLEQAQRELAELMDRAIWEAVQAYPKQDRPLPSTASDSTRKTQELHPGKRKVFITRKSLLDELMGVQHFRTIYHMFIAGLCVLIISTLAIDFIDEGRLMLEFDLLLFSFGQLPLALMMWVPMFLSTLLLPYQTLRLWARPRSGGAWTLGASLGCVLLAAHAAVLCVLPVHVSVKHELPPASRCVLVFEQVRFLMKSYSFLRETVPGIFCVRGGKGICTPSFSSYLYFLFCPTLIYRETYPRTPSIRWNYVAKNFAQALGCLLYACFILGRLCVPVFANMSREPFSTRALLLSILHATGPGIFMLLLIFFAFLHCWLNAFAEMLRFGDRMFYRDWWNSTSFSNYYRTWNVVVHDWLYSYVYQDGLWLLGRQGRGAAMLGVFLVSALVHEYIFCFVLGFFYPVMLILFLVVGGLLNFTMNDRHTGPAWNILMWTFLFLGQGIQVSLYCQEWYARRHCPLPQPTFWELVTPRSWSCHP
Test: Inhibition of Acyl-CoA: Cholesterol Acyltransferase (ACAT) in Hepatic Microsomes (In Vitro Assay)
Format: biochemical, rat (male Sprague Dawley)
Details: 75 μM 14C-oleoyl-CoA, pH 7.4, 37° C., 10 min, read-out: ACAT Inhibitory Activity (In Vitro) (IC50)
Experimental: A. Assay of the Inhibition of Acyl-CoA: Cholesterol Acyltransferase (ACAT) in Hepatic Microsomes (In Vitro Assay)
The ability of the compounds to inhibit ACAT, the enzyme responsible for the intracellular synthesis of cholesteryl esters, was tested as follows. Male Sprague Dawley rats weighing 150-300 g, were fed rat chow ad libitum. The animals were fasted for twenty-four hours prior to being euthanized by CO2. The livers were perfused in situ with 50 ml of cold 0.25 sucrose, excised, and homogenized in three volumes of 0.1M phosphate buffer, pH 7.4, that contained 0.5 mM EDTA (ethylenediamine-tetraacetic acid), 1.0 mM glutathione, 0.25M sucrose and […] leupeptin. Microsomes were obtained by differential centrifugation; the supernatant from an initial spin at 15,000×g for 15 minutes was centrifuged at 105,000×g for 1 hour to pellet the microsomes. The microsomes were suspended in homogenization buffer, reisolated by centrifugation, and stored at -70° C. Microsomes were used within one month of preparation.
The control assay in a final volume of 200 μl consisted of 200 μg of microsomal protein, 75 μM ^14 C-oleoyl-CoA (10,000 dpm/nmol) in 0.1M phosphate, pH 7.4, that contained 1 mM glutathione. Compounds were added in 5 μl of DMSO (dimethyl sulfoxide) and additional controls were run with DMSO only. All components, except the oleoyl-CoA, were preincubated for 15 min. at 37° C. prior to the initiation of the reaction by the addition of oleoyl-CoA. The assay was terminated after 10 min by the addition of 4 ml of chloroform:methanol (2:1, v/v). 20,000 dpm of ^3 H-cholesteryl oleate and 10 μg of unlabeled cholesteryl oleate and oleic acid were added as an internal standard and carriers, respectively. After allowing 10 min. for lipid extraction, the samples were centrifuged at 1,000×g for 10 min to separate the solvent layers. The chloroform layer containing the neutral lipids was spotted onto a Baker SI250-Pa silica gel TLC plate and the plate developed using a hexane:diethyl ether:acetic acid (170:30:1) v/v/v) mobile phase. The lipids were visualized by their interaction with iodine vapor and the cholesteryl ester spot was scraped into a scintillation vial and counted. The specific activity of ACAT in the control incubation averaged 260 pmol/min/mg microsomal protein. The data obtained are expressed as the concentration at which ACAT activity is inhibited by 50% (IC50).

SMILES | pIC50
CSc1cc(C)nc(SC)c1NC(=O)C(SCc1ccc(F)cc1)c1ccc(F)cc1 (stereo not drawn) [Example 153, N-[2,4-bis(methylthio)-6-methyl-3-pyridyl]-α-(4-fluoro-benzylthio)-4-fluoro-phenylacetamide] | > 6.00
COc1ccc(CSC(C(=O)Nc2c(SC)cc(C)nc2SC)c2ccc(F)cc2)cc1 (stereo not drawn) [Example 154, N-[2,4-bis(methylthio)-6-methyl-3-pyridyl]-α-(4-methoxy-benzylthio)-4-fluoro-phenylacetamide] | > 6.00
CSc1cc(C)nc(SC)c1NC(=O)C(Sc1ccc(F)cc1)c1ccc(F)cc1 (stereo not drawn) [Example 166, N-[2,4-bis(methylthio)-6-methyl-3-pyridyl]-α-(4-fluoro-phenylthio)-4-fluoro-phenylacetamide] | > 6.00
COc1ccc(SC(C(=O)Nc2c(SC)cc(C)nc2SC)c2ccc(F)cc2)cc1 (stereo not drawn) [Example 167, N-[2,4-bis(methylthio)-6-methyl-3-pyridyl]-α-(4-methoxy-phenylthio)-4-fluoro-phenylacetamide] | > 6.00
CCCCCCSC(C(=O)Nc1c(SC)cc(C)nc1SC)c1ccc(Cl)c(Cl)c1 (stereo not drawn) [Example 176, N-[2,4-bis(methylthio)-6-methyl-3-pyridyl]-α-hexylthio-3,4-dichloro-phenylacetamide] | > 6.00
CSc1cc(C)nc(SC)c1NC(=O)C(SCc1ccccc1)c1ccc(Cl)c(Cl)c1 (stereo not drawn) [Example 180, N-[2,4-bis(methylthio)-6-methyl-3-pyridyl]-α-benzylthio-3,4-dichloro-phenylacetamide] | > 6.00
CSc1cc(C)nc(SC)c1NC(=O)C(SCc1ccc(F)cc1)c1ccc(Cl)c(Cl)c1 (stereo not drawn) [Example 181, N-[2,4-bis(methylthio)-6-methyl-3-pyridyl]-α-(4-fluoro-benzylthio)-3,4-dichloro-phenylacetamide] | > 6.00
COc1ccc(CSC(C(=O)Nc2c(SC)cc(C)nc2SC)c2ccc(Cl)c(Cl)c2)cc1 (stereo not drawn) [Example 182, N-[2,4-bis(methylthio)-6-methyl-3-pyridyl]-α-(4-methoxy-benzylthio)-3,4-dichloro-phenylacetamide] | > 6.00
CCCCCCSC(C(=O)Nc1c(SC)cc(C)nc1SC)c1ccc(F)cc1F (stereo not drawn) [Example 204, N-[2,4-bis(methylthio)-6-methyl-3-pyridyl]-α-hexylthio-2,4-difluoro-phenylacetamide] | > 6.00
COc1ccc(CSC(C(=O)Nc2c(SC)cc(C)nc2SC)c2ccc(F)cc2F)cc1 (stereo not drawn) [Example 210, N-[2,4-bis(methylthio)-6-methyl-3-pyridyl]-α-(4-methoxy-benzylthio)-2,4-difluoro-phenylacetamide] | > 6.00
CCCCCCSC(C(=O)Nc1c(SC)cc(C)nc1SC)c1ccc(OC)c(OC)c1 (stereo not drawn) [Example 232, N-[2,4-bis(methylthio)-6-methyl-3-pyridyl]-α-hexylthio-3,4-dimethoxy-phenylacetamide] | > 6.00
COc1ccc(C(SCc2ccccc2)C(=O)Nc2c(SC)cc(C)nc2SC)cc1OC (stereo not drawn) [Example 236, N-[2,4-bis(methylthio)-6-methyl-3-pyridyl]-α-benzylthio-3,4-dimethoxy-phenylacetamide] | > 6.00
COc1ccc(C(SCc2ccc(F)cc2)C(=O)Nc2c(SC)cc(C)nc2SC)cc1OC (stereo not drawn) [Example 237, N-[2,4-bis(methylthio)-6-methyl-3-pyridyl]-α-(4-fluoro-benzylthio)-3,4-dimethoxy-phenylacetamide] | > 6.00
CCCCCCSC(C(=O)Nc1c(SC)cc(C)nc1SC)c1ccc(OCCCC)cc1 (stereo not drawn) [Example 260, N-[2,4-bis(methylthio)-6-methyl-3-pyridyl]-α-hexylthio-4-butoxy-phenylacetamide] | > 6.00
CCCCOc1ccc(C(SCc2ccccc2)C(=O)Nc2c(SC)cc(C)nc2SC)cc1 (stereo not drawn) [Example 264, N-[2,4-bis(methylthio)-6-methyl-3-pyridyl]-α-benzylthio-4-butoxy-phenylacetamide] | > 6.00
CCCCCCSC(C(=O)Nc1c(SC)cc(C)nc1SC)c1ccc(Oc2ccccc2)cc1 (stereo not drawn) [Example 288, N-[2,4-bis(methylthio)-6-methyl-3-pyridyl]-α-hexylthio-4-phenoxy-phenylacetamide] | > 6.00

Results, then the compound that gave them:

pIC50 | SMILES
> 6.00 | CSc1cc(C)nc(SC)c1NC(=O)C(SCc1ccccc1)c1ccc(Oc2ccccc2)cc1 (stereo not drawn) [Example 292, N-[2,4-bis(methylthio)-6-methyl-3-pyridyl]-α-benzylthio-4-phenoxy-phenylacetamide]
> 6.00 | CSc1cc(C)nc(SC)c1NC(=O)C(SCc1ccc(Cl)cc1)c1ccc(Oc2ccccc2)cc1 (stereo not drawn) [Example 295, N-[2,4-bis(methylthio)-6-methyl-3-pyridyl]-α-(4-chloro-benzylthio)-4-phenoxy-phenylacetamide]
> 6.00 | CCCCCCSC(C(=O)Nc1c(SC)cc(C)nc1SC)c1cccc(Oc2ccccc2)c1 (stereo not drawn) [Example 316, N-[2,4-bis(methylthio)-6-methyl-3-pyridyl]-α-hexylthio-3-phenoxy-phenylacetamide]
> 6.00 | CCCCCCSC(C(=O)Nc1c(SC)cc(C)nc1SC)c1cccc(Oc2ccc(Br)cc2)c1 (stereo not drawn) [Example 317, N-[2,4-bis(methylthio)-6-methyl-3-pyridyl]-α-hexylthio-3-(4'-bromophenoxy)-phenylacetamide]
> 6.00 | CSc1cc(C)nc(SC)c1NC(=O)C(SCc1ccccc1)c1cccc(Oc2ccccc2)c1 (stereo not drawn) [Example 321, N-[2,4-bis(methylthio)-6-methyl-3-pyridyl]-α-benzylthio-3-phenoxy-phenylacetamide]
> 6.00 | CSc1cc(C)nc(SC)c1NC(=O)C(SCc1ccccc1)c1cccc(Oc2ccc(Br)cc2)c1 (stereo not drawn) [Example 322, N-[2,4-bis(methylthio)-6-methyl-3-pyridyl]-α-benzylthio-3-(4'-bromophenoxy)-phenylacetamide]
> 6.00 | CSc1cc(C)nc(SC)c1NC(=O)C(SCc1ccc(Cl)cc1)c1cccc(Oc2ccccc2)c1 (stereo not drawn) [Example 325, N-[2,4-bis(methylthio)-6-methyl-3-pyridyl]-α-(4-chloro-benzylthio)-3-phenoxy-phenylacetamide]
> 6.00 | CSc1cc(C)nc(SC)c1NC(=O)C(SCc1ccc(Cl)cc1)c1cccc(Oc2ccc(Br)cc2)c1 (stereo not drawn) [Example 326, N-[2,4-bis(methylthio)-6-methyl-3-pyridyl]-α-(4-chloro-benzylthio)-3-(4'-bromophenoxy)-phenylacetamide]
> 6.00 | CCCCCCSC(C(=O)Nc1c(SC)cc(C)nc1SC)c1ccc(C(F)(F)F)cc1 (stereo not drawn) [Example 375, N-[2,4-bis(methylthio)-6-methyl-3-pyridyl]-α-hexylthio-4-trifluoromethyl-phenylacetamide]
> 6.00 | CSc1cc(C)nc(SC)c1NC(=O)C(SCc1ccccc1)c1ccc(C(F)(F)F)cc1 (stereo not drawn) [Example 379, N-[2,4-bis(methylthio)-6-methyl-3-pyridyl]-α-benzylthio-4-trifluoromethyl-phenylacetamide]
> 6.00 | CSc1cc(C)nc(SC)c1NC(=O)C(SCc1ccc(F)cc1)c1ccc(C(F)(F)F)cc1 (stereo not drawn) [Example 380, N-[2,4-bis(methylthio)-6-methyl-3-pyridyl]-α-(4-fluoro-benzylthio)-4-trifluoromethyl-phenylacetamide]
> 6.00 | COc1ccc(CSC(C(=O)Nc2c(SC)cc(C)nc2SC)c2ccc(C(F)(F)F)cc2)cc1 (stereo not drawn) [Example 381, N-[2,4-bis(methylthio)-6-methyl-3-pyridyl]-α-(4-methoxy-benzylthio)-4-trifluoromethyl-phenylacetamide]
> 6.00 | CSc1cc(C)nc(SC)c1NC(=O)C(Sc1ccc(F)cc1)c1ccc(C(F)(F)F)cc1 (stereo not drawn) [Example 393, N-[2,4-bis(methylthio)-6-methyl-3-pyridyl]-α-(4-fluoro-phenylthio)-4-trifluoromethyl-phenylacetamide]
